Laboratory results: patent US20250034170A1, “SMALL MOLECULE MODULATORS OF GLUCOCEREBROSIDASE ACTIVITY AND USES THEREOF” (Vanqua Bio, Inc., priority 2021, published 2025)

biological target: T1, GCase (Homo sapiens, UniProt P04062); assay: activation of GCase in a live cell PFB assay in HELA cells; assay type: cell-based; details: activation of GCase, EC50 ranges
T1 construct: endogenous in cells; host or cells: HeLa cells
T1 sequence (P04062 40-536): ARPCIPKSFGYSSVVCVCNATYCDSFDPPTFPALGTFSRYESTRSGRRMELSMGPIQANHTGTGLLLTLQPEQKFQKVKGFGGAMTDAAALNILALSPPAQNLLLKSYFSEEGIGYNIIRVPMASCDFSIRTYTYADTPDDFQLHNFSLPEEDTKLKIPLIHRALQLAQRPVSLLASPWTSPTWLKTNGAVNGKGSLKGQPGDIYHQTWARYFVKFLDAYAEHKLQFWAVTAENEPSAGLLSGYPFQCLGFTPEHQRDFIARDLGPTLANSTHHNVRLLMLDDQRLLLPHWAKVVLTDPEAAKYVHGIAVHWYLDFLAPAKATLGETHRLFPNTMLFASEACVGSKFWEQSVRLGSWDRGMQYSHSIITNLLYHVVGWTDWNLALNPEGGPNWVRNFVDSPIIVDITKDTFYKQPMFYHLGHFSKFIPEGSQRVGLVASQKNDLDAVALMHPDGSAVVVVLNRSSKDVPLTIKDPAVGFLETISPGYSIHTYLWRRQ
Protocol: Exemplary compounds were evaluated for activation of GCase in a live cell PFB assay in HELA cells (essentially as described in Ysselstein et al., “LRRK2 kinase activity regulates lysosomal glucocerebrosidase in neurons derived from Parkinson's disease patients” Nature Communications (2019) 10:5570). […] EC50 ranges: A: <10 μM; B: >10-50 μM; C: >50-100 μM; D: >100 μM.

**Q.** `FC(F)Cn1ncc2ncc(N3CCC4(CC3)CN(c3ncccc3C(F)(F)F)C4)nc21` [Compound 79, 7-[1-(2,2-difluoroethyl)-1H-pyrazolo[3,4-b]pyrazin-6-yl]-2-[3-(trifluoromethyl)pyridin-2-yl]-2,7-diazaspiro[3.5]nonane] was tested. Which EC50 did it give?
**A.** < 10 µM

**Q.** For `FC(F)Cn1ncc2ncc(N3CCC4(CCCC4COc4cccc(C(F)(F)F)n4)CC3)nc21` (stereo not shown) [Compound 80, 8-[1-(2,2-difluoroethyl)-1H-pyrazolo[3,4-b]pyrazin-6-yl]-1-({[6-(trifluoromethyl)pyridin-2-yl]oxy}methyl)-8-azaspiro[4.5]decane], which EC50 is on record?
**A.** 10 to 50 µM

**Q.** Which EC50 does the source give for `FC(F)Cn1ncc2ncc(N3CCC4(CCC(Oc5cccc(C(F)(F)F)n5)C4)CC3)nc21` (stereo not shown) [Compound 81, 8-[1-(2,2-difluoroethyl)-1H-pyrazolo[3,4-b]pyrazin-6-yl]-2-{[6-(trifluoromethyl)pyridin-2-yl]oxy}-8-azaspiro[4.5]decane] here?
**A.** 10 to 50 µM

**Q.** `FC(F)Cn1ncc2ncc(N3CCC4(CCC4COc4cccc(C(F)(F)F)n4)CC3)nc21` (stereo not shown) [Compound 82, 7-[1-(2,2-difluoroethyl)-1H-pyrazolo[3,4-b]pyrazin-6-yl]-1-({[6-(trifluoromethyl)pyridin-2-yl]oxy}methyl)-7-azaspiro[3.5]nonane] was tested. Which EC50 did it give?
**A.** 10 to 50 µM

**Q.** With `FC(F)Cn1ncc2ncc(N3CCC4(CCC4Oc4cccc(C(F)(F)F)n4)CC3)nc21` (stereo not shown) [Compound 83, 7-[1-(2,2-difluoroethyl)-1H-pyrazolo[3,4-b]pyrazin-6-yl]-1-{[6-(trifluoromethyl)pyridin-2-yl]oxy}-7-azaspiro[3.5]nonane] as the compound, how does the EC50 read?
**A.** 10 to 50 µM

**Q.** How did the EC50 turn out when `FC(F)Cn1ncc2ncc(N3CCC4(CC3)CC(Oc3cccc(C(F)(F)F)n3)C4)nc21` [Compound 84, 7-[1-(2,2-difluoroethyl)-1H-pyrazolo[3,4-b]pyrazin-6-yl]-2-{[6-(trifluoromethyl)pyridin-2-yl]oxy}-7-azaspiro[3.5]nonane] was run?
**A.** 10 to 50 µM

**Q.** Which EC50 does the source give for `FC(F)Cn1ncc2ncc(N3CCC4(CC3)CC(COc3cccc(C(F)(F)F)n3)C4)nc21` [Compound 85, 7-[1-(2,2-difluoroethyl)-1H-pyrazolo[3,4-b]pyrazin-6-yl]-2-({[6-(trifluoromethyl)pyridin-2-yl]oxy}methyl)-7-azaspiro[3.5]nonane] here?
**A.** 10 to 50 µM

**Q.** Which EC50 does the source give for `FC(F)Cn1ncc2ncc(N3CCC4(CCC(Oc5cccnc5C(F)(F)F)C4)CC3)nc21` (stereo not shown) [Compound 86, 8-[1-(2,2-difluoroethyl)-1H-pyrazolo[3,4-b]pyrazin-6-yl]-2-{[2-(trifluoromethyl)pyridin-3-yl]oxy}-8-azaspiro[4.5]decane] here?
**A.** < 10 µM

**Q.** For `FC(F)Cn1ncc2ncc(N3CCC4(CCC4Oc4cccnc4C(F)(F)F)CC3)nc21` (stereo not shown) [Compound 87, 7-[1-(2,2-difluoroethyl)-1H-pyrazolo[3,4-b]pyrazin-6-yl]-1-{[2-(trifluoromethyl)pyridin-3-yl]oxy}-7-azaspiro[3.5]nonane], which EC50 is on record?
**A.** < 10 µM

**Q.** With `FC(F)Cn1ncc2ncc(N3CCC4(CC3)CC(Oc3cccnc3C(F)(F)F)C4)nc21` [Compound 88, 7-[1-(2,2-difluoroethyl)-1H-pyrazolo[3,4-b]pyrazin-6-yl]-2-{[2-(trifluoromethyl)pyridin-3-yl]oxy}-7-azaspiro[3.5]nonane] as the compound, how does the EC50 read?
**A.** < 10 µM

**Q.** How did the EC50 turn out when `FC(F)Cn1ncc2ncc(N3CCC4(CC3)CC(COc3cccnc3C(F)(F)F)C4)nc21` [Compound 89, 7-[1-(2,2-difluoroethyl)-1H-pyrazolo[3,4-b]pyrazin-6-yl]-2-({[2-(trifluoromethyl)pyridin-3-yl]oxy}methyl)-7-azaspiro[3.5]nonane] was run?
**A.** 10 to 50 µM

**Q.** For `O=C1CC2(CCCN(c3cnc4cnn(CC(F)F)c4n3)C2)CN1c1cccc(C(F)(F)F)n1` (stereo not shown) [Compound 95, 7-[1-(2,2-difluoroethyl)-1H-pyrazolo[3,4-b]pyrazin-6-yl]-2-[6-(trifluoromethyl)pyridin-2-yl]-2,7-diazaspiro[4.5]decan-3-one], which EC50 is on record?
**A.** 10 to 50 µM

**Q.** Which EC50 does the source give for `O=C1N(c2cccc(C(F)(F)F)n2)CCC12CCCN(c1cnc3cnn(CC(F)F)c3n1)C2` (stereo not shown) [Compound 96, 7-[1-(2,2-difluoroethyl)-1H-pyrazolo[3,4-b]pyrazin-6-yl]-2-[6-(trifluoromethyl)pyridin-2-yl]-2,7-diazaspiro[4.5]decan-1-one] here?
**A.** 10 to 50 µM
